Measurements reported in PubChem BioAssay (NCI).
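The compound was tested at five concentrations on cells cultured in 96-well plates, with a 48-hour exposure period. TGI denotes the concentration required for complete inhibition of growth.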

Tests used:
Test in all cases: NCI tumour cell line growth inhibition, 48 h
[1] = test system: EKVX NSCLC
[2] = test system: HL-60(TB) leukemia
[3] = test system: HCC-2998 colon
[4] = test system: SK-MEL-2 melanoma
[5] = test system: HT29 colon
[6] = test system: MCF7 breast
[7] = test system: MDA-MB-231 breast
[8] = test system: IGROV1 ovarian
[9] = test system: SK-MEL-5 melanoma
[10] = test system: SW-620 colon
[11] = test system: BT-549 breast
[12] = test system: SF-539 CNS
[13] = test system: COLO 205 colon
[14] = test system: SN12C renal
[15] = test system: HCT-116 colon
[16] = test system: KM12 colon
[17] = test system: OVCAR-5 ovarian
[18] = test system: SNB-75 CNS
[19] = test system: ACHN renal
[20] = test system: RPMI-8226 leukemia
[21] = test system: T-47D breast
[22] = test system: LOX IMVI melanoma
[23] = test system: SR leukemia
[24] = test system: SK-OV-3 ovarian
[25] = test system: A549 NSCLC
[26] = test system: NCI-H522 lung
[27] = test system: SF-268 CNS
[28] = test system: MALME-3M melanoma
[29] = test system: HCT-15 colon
[30] = test system: OVCAR-8 ovarian
[31] = test system: A498 renal
[32] = test system: NCI/ADR-RES ovarian
[33] = test system: NCI-H460 lung
[34] = test system: SNB-19 CNS
[35] = test system: PC-3 prostate
[36] = test system: MDA-N
[37] = test system: UO-31 renal
[38] = test system: TK-10 renal
[39] = test system: RXF 393 renal
[40] = test system: NCI-H23 lung
[41] = test system: M14 melanoma
[42] = test system: CAKI-1 renal
[43] = test system: UACC-62 melanoma
[44] = test system: OVCAR-3 ovarian
[45] = test system: MOLT-4 leukemia
[46] = test system: 786-0 renal
[47] = test system: SK-MEL-28 melanoma
[48] = test system: SF-295 CNS
[49] = test system: UACC-257 melanoma
[50] = test system: HOP-62 NSCLC
[51] = test system: HOP-92 NSCLC
[52] = test system: OVCAR-4 ovarian
[53] = test system: K-562 leukemia
[54] = test system: HS 578T breast
[55] = test system: MDA-MB-435
[56] = test system: DU-145 prostate
[57] = test system: NCI-H226 lung
[58] = test system: U251 CNS
[59] = test system: CCRF-CEM leukemia
[60] = test system: XF 498 CNS
[61] = test system: SNB-78 CNS
[62] = test system: DLD-1 colon
[63] = test system: LXFL 529 NSCLC
[64] = test system: DMS 273 small cell lung
[65] = test system: KM20L2 colon

## C=C(C)C1CC2=C(C(=O)OC)C=C(O2)C(C(=C)C)[C@@H]2OC(=O)/C(=C\C1O)[C@H]2N(C)C (stereo partly drawn)
[1]
  TGI: 29 µM
[2]
  TGI: > 24.2 µM
[3]
  TGI: 29 µM
[4]
  TGI: 26.7 µM
[5]
  TGI: > 100 µM
[6]
  TGI: 24.9 µM
[7]
  TGI: 43.8 µM
[8]
  TGI: 20.9 µM
[9]
  TGI: 27.9 µM
[10]
  TGI: 30.3 µM
[11]
  TGI: 24.3 µM
[12]
  TGI: 22.9 µM
[13]
  TGI: 29 µM
[14]
  TGI: 28.5 µM
[15]
  TGI: 27.7 µM
[16]
  TGI: 28 µM
[17]
  TGI: 38 µM
[18]
  TGI: 30.4 µM
[19]
  TGI: 24 µM
[20]
  TGI: 14.9 µM
[21]
  TGI: 45.9 µM
[22]
  TGI: 24.2 µM
[23]
  TGI: > 41.2 µM
[24]
  TGI: 64.1 µM
[25]
  TGI: 30.8 µM
[26]
  TGI: 10.3 µM
[27]
  TGI: 32.9 µM
[28]
  TGI: 34.5 µM
[29]
  TGI: 22.5 µM
[30]
  TGI: 25.8 µM
[31]
  TGI: 31.3 µM
[32]
  TGI: 26 µM
[33]
  TGI: 31.4 µM
[34]
  TGI: 50.9 µM
[35]
  TGI: 24.5 µM
[36]
  TGI: 25.8 µM
[37]
  TGI: 26.4 µM
[38]
  TGI: 15.7 µM
[39]
  TGI: 15.7 µM
[40]
  TGI: 28.8 µM
[41]
  TGI: 29.7 µM
[42]
  TGI: 21.2 µM
[43]
  TGI: 28.3 µM
[44]
  TGI: 25.7 µM
[45]
  TGI: > 22.7 µM
[46]
  TGI: 21 µM
[47]
  TGI: 27.8 µM
[48]
  TGI: 32 µM
[49]
  TGI: 37.1 µM
[50]
  TGI: 34.2 µM
[51]
  TGI: 20.2 µM
[52]
  TGI: 21 µM
[53]
  TGI: > 100 µM
[54]
  TGI: 44.2 µM
[55]
  TGI: 25 µM
[56]
  TGI: 24.8 µM
[57]
  TGI: 21.7 µM
[58]
  TGI: 33 µM
[59]
  TGI: 5.4 µM

## O=C(/C=C/c1ccccc1F)C(c1ccccc1)c1ccccc1
[1]
  TGI: 24.4 µM
[2]
  TGI: 11.8 µM
[4]
  TGI: 6.15 µM
[5]
  TGI: 11.5 µM
[8]
  TGI: 30.7 µM
[10]
  TGI: 11.5 µM
[12]
  TGI: 5.48 µM
[60]
  TGI: 3.56 µM
[14]
  TGI: 15.2 µM
[15]
  TGI: 6.4 µM
[16]
  TGI: 15 µM
[61]
  TGI: 34.8 µM
[18]
  TGI: 19.2 µM
[19]
  TGI: 7.66 µM
[20]
  TGI: > 100 µM
[62]
  TGI: 12.7 µM
[22]
  TGI: 3.2 µM
[23]
  TGI: 41.9 µM
[24]
  TGI: 8.47 µM
[25]
  TGI: 17.4 µM
[26]
  TGI: 8.29 µM
[27]
  TGI: 11.3 µM
[28]
  TGI: 23.7 µM
[29]
  TGI: 23.8 µM
[63]
  TGI: 12 µM
[64]
  TGI: 38.1 µM
[34]
  TGI: 5.46 µM
[37]
  TGI: 25.2 µM
[38]
  TGI: 14.6 µM
[41]
  TGI: 6.81 µM
[42]
  TGI: 17.8 µM
[43]
  TGI: 4.56 µM
[44]
  TGI: 15.2 µM
[65]
  TGI: 15.6 µM
[45]
  TGI: 6.6 µM
[46]
  TGI: 5.8 µM
[47]
  TGI: 6.84 µM
[48]
  TGI: 5.91 µM
[49]
  TGI: 17.7 µM
[51]
  TGI: 8.72 µM
[53]
  TGI: 9.74 µM
[57]
  TGI: 25.3 µM
[58]
  TGI: 13 µM
[59]
  TGI: 6.32 µM
